This note sets out measurements from publication PMC6172212, “Structural Analysis of Inhibitor Binding to CAMKK1 Identifies Features Necessary for Design of Specific Inhibitors” (Scientific Reports, 2018).

T1 sequence (Q8N5S9 124-411): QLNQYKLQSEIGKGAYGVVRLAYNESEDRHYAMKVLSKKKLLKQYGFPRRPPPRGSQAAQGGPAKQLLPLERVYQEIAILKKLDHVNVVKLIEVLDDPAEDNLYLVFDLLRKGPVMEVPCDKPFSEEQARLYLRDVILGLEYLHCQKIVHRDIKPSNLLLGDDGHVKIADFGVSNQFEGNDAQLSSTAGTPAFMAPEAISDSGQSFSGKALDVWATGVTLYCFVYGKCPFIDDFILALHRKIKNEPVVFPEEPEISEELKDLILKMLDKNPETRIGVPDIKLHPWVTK

The first test has as its target T1, CAMKK1 kinase domain (CAMKK1-KD, Gln124-Lys411) (Homo sapiens, UniProt Q8N5S9).
T1 construct: The kinase domain (Gln124 to Lys411) was amplified using the primers; 6xHis (TEV-cleavable) (N, cleaved yes); made in house; host or cells: Escherichia coli BL21(DE3)-R3 co-expressing λ-phosphatase
Put plainly: Differential scanning fluorimetry (DSF) screen of a kinase inhibitor library against CAMKK1-KD. It counts as binding. The settings on record: DSF, 1 μM CAMKK1-KD, compound 10 µM; mean and standard error from triplicate measurements. The protocol: DSF measurements were made in a 384-well plate.
The compounds, previously solubilized in DMSO, were used at 10 µM final concentration and 0.1% DMSO. Plates were sealed using optically clear films and transferred to a QuantStudio 6 qPCR instrument (Applied Biosystems). […] Protein in 0.1% DMSO was used as a reference.
On to `COc1cc(N2CCC(N)CC2)ccc1Nc1ncc(Cl)c(-c2c[nH]c3ccccc23)n1` [AZD3463], for which the “ΔTm (°C) CAMKK1” value is 11.5 ± 0.3 °C.

Staying with this test, now noted: DSF, 1 μM CAMKK1-KD, compound 10 µM; supplement.
Turning to `Cc1[nH]nc2ccc(-c3cncc(OC[C@@H](N)Cc4ccccc4)c3)cc12` [A-674563], the “Mean ΔTm (°C)” value came to 5.7 °C.

Turning to `COc1ccc2c(Oc3ccc(NC(=O)c4c(C)n(CC(C)(C)O)n(-c5ccccc5)c4=O)nc3)ccnc2c1` [AMG-458], the “Mean ΔTm (°C)” value was found to be 5.2 °C.

Take `O=C1NC(=O)/C(=C/c2ccc(-c3ccc(F)cc3O)o2)S1` [AS-252424]: the “Mean ΔTm (°C)” value was 4.8 °C.

As to `CC(C)CCN1c2nc(Nc3cc(F)c(O)c(F)c3)ncc2N(C)C(=O)C1C` (stereo not drawn) [BI-D1870], the “Mean ΔTm (°C)” value amounted to 3.6 °C.

In the case of `O=C1Nc2cc(Br)ccc2/C1=C1/Nc2ccccc2/C1=N\O` [BIO], the “Mean ΔTm (°C)” value worked out at 2.9 °C.

As for `Cc1cc(N2CCOCC2)cc2[nH]c(-c3c(NC[C@@H](O)c4cccc(Cl)c4)cc[nH]c3=O)nc12` [BMS-536924], the “Mean ΔTm (°C)” value is 3.6 °C.

Regarding `O=C(Nc1cccc(Nc2ncc(Br)c(NCCc3cnc[nH]3)n2)c1)N1CCCC1` [BX-912], the “Mean ΔTm (°C)” value turned out to be 4.3 °C.

In the case of `O=c1[nH]c2ccc(Cl)cc2c(N[C@@H]2CN3CCC2CC3)c1-c1nc2ccccc2[nH]1` [CHIR-124], the “Mean ΔTm (°C)” value is 5.5 °C.

Regarding `C=CC(=O)Nc1cccc(Nc2nc(Nc3ccc(NC4CN(CCF)C4)cc3OC)ncc2C(F)(F)F)c1` [CNX-2006], the “Mean ΔTm (°C)” value was 4.4 °C.

For the compound `COc1cc2nccc(Oc3ccc(NC(=O)C4(C(=O)Nc5ccc(F)cc5)CC4)cc3)c2cc1OC` [Cabozantinib (XL184), Cabozantinib], the “Mean ΔTm (°C)” value came out at 5.0 °C.

In the case of `CN1CCN(c2ccc3nc(-c4c(N)c5c(F)cccc5[nH]c4=O)[nH]c3c2)CC1` [Dovitinib (TKI-258), Dovitinib], the “Mean ΔTm (°C)” value was determined as 3.1 °C.

Staying with this test, now noted: DSF, 1 μM CAMKK1-KD, compound 10 µM; supplement; read-out: Mean ΔTm (°C).
As a reminder, the ΔTm is the change in melting temperature against a reference sample. Regarding `O=C(Nc1c[nH]nc1-c1nc2ccc(CN3CCOCC3)cc2[nH]1)NC1CC1` [AT9283], the ΔTm at 10 µM came out at 5.6 °C.

As for `Cc1cc(Nc2nc(N[C@@H](C)c3ccc(F)cc3)c(C#N)cc2F)[nH]n1` [AZ 960], the ΔTm at 10 µM came to 4.4 °C.

With `Cc1cc(Nc2nc(N[C@@H](C)c3ncc(F)cn3)ncc2Cl)n[nH]1` [AZD1480], the ΔTm at 10 µM amounted to 3.8 °C.

As to `Cc1ncc(-c2ccnc(Nc3ccc(S(C)(=O)=O)cc3)n2)n1C(C)C` [AZD5438], the shift in melting temperature (ΔTm) at 10 µM is 3.4 °C.

Consider `NC(=O)Nc1cc(-c2cccc(F)c2)sc1C(=O)N[C@H]1CCCNC1` [AZD7762], for which the ΔTm at 10 µM came out at 3.6 °C.

In the case of `C=CC(=O)Nc1cc(Nc2nccc(-c3cn(C)c4ccccc34)n2)c(OC)cc1N(C)CCN(C)C` [AZD9291], the ΔTm at 10 µM was determined as 2.6 °C.

Take `CN(C)C/C=C/C(=O)Nc1cc2c(Nc3ccc(F)c(Cl)c3)ncnc2cc1O[C@H]1CCOC1` [Afatinib (BIBW2992), Afatinib]: the ΔTm at 10 µM came out at 3.4 °C.

Consider `Nc1nccc(Oc2ccc(NC(=O)c3c[nH]cc(-c4ccc(F)cc4)c3=O)cc2F)c1Cl` [BMS-794833], for which the ΔTm at 10 µM worked out at 4.9 °C.

As to `O=C(NCCCNc1nc(Nc2cccc(NC(=O)N3CCCC3)c2)ncc1I)c1cccs1` [BX-795], the ΔTm at 10 µM was determined as 5.6 °C.

Take `C=CC(=O)Nc1cccc(Nc2nc(Nc3ccc(N4CCN(C(C)=O)CC4)cc3OC)ncc2C(F)(F)F)c1` [CO-1686 (AVL-301)]: the ΔTm at 10 µM is 3.4 °C.

On to `Cc1nc(N)sc1-c1ccnc(Nc2ccc(N3CCOCC3)cc2)n1` [CYC116], for which the ΔTm at 10 µM was determined as 2.7 °C.

For the compound `N#CCNC(=O)c1ccc(-c2ccnc(Nc3ccc(N4CCOCC4)cc3)n2)cc1` [CYT387], the shift in melting temperature (ΔTm) at 10 µM came out at 4.7 °C.

In the case of `COc1cc2nccc(Oc3ccc(NC(=O)C4(C(=O)Nc5ccc(F)cc5)CC4)cc3)c2cc1OC` [Cabozantinib malate (XL184), Cabozantinib malate], the ΔTm at 10 µM was determined as 5.2 °C.

Consider `CO[C@@H](C(=O)N1Cc2n[nH]c(NC(=O)c3ccc(N4CCN(C)CC4)cc3)c2C1)c1ccccc1` [Danusertib (PHA-739358), Danusertib], for which the ΔTm at 10 µM was 3.8 °C.

The same test, now with this note: read-out: ΔTm (°C) CAMKK1.
In the case of `CCOc1ccn(-c2ccc(F)cc2)c(=O)c1C(=O)Nc1ccc(Oc2ccnc(N)c2Cl)c(F)c1` [BMS-777607], the thermal shift (ΔTm) at 10 µM is 7.5 ± 0.3 °C.
